Data as given in patent publication US10975081B2, “Substituted fused pyrazole compounds and their use as LRRK2 inhibitors” (GlaxoSmithKline Intellectual Property Development Limited, priority 2015, dated 2021).

Legend:
[1] = target: Full length G2019 human LRRK2 (Homo sapiens (Human), UniProt Q5S007); assay: Full length G2019 human LRRK2 inhibition mass spectrometry assay; format: biochemical; conditions: Full length Flag-LRRK2, 25 uM LRRKtide, 2 mM ATP
Procedure: Mass Spectrometer Settings • LRRKtide Detection settings: Q1 mass 644.8 Da, Q3 mass 638.8, declustering potential 76 volts, collision energy 37 volts, CXP 34 volts • Phospho-LRRKtide Detection settings: Q1 mass 671.4 Da, Q3 mass 638.8, Declustering potential 76 volts, Collision energy 37 volts, CXP 34 volts. • A C4 cartridge was used and running buffers were: A (aqueous) 0.1% formic acid in water B (organic) 0.1% formic acid, 80% acetonitrile, 20% water • 5. Data was analysed using ActivityBase software (IDBS). A percent conversion from LRRKtide to Phospho-LRRKtide was calculated using the following formula: % conversion=(Phospho-LRRKtide product peak area/(Phospho-LRRKtide product peak area+LRRKtide substrate peak area))*100 2) Full Length G2019 Human LRRK2 Inhibition Mass Spectrometry Assay Insect Cell Cultures
Sf9 insect cells (Invitrogen Life Technologies, Carlsbad, Calif.) were maintained at 27° C. in SF 900 II SFM in 500-ml stationary flasks. The cells were maintained in exponential growth phase and subcultured twice per week. For larger volumes, cells were grown in 2-liter shaker flasks (Erlenmeyer, Corning) while being agitated with 120 rpm at 27° C. incubator shaker.
Human G2019 LRRK2 Plasmids Preparation
Primers Used for PCR Cloning:
• pHTBV-F: SEQ ID No: 1 • LRRK2 wt-F1: SEQ ID No: 2 • LRRK2 wt-R1: SEQ ID No: 3 • LRRK2 wt-F2: SEQ ID No: 4 • LRRK2 wt-R2: SEQ ID No: 5 • LRRK2 wt-F3: SEQ ID No: 6 • pHTBV-R: SEQ ID No: 7
The primers described above were used to amplify full length human LRRK2 (amino acids from 1-2527) with N terminal Flag tag from BioCat 116313 using high fidelity PCR polymerase KOD-Plus according to the manufacturer's instructions (KOD-211, TOYOBO). The PCR product was digested with BamHI and KpnI and ligated into BamHI and KpnI digested pHTBV1mcs3 (BioCat 127555). The sequence of the target fragment was confirmed by DNA sequencing. The construct BioCat141351 was generated by Novoprotein.
The G2019 full length Flag-LRRK2 coding sequence is SEQ ID No: 8.
The translated protein sequence for human G2019 full length LRRK2 flag tagged protein is SEQ ID No: 9.
Generation of the BacMam Virus
To generate the recombinant BacMam virus, SF9 cells were seeded in 6-well tissue culture dishes at 9×10^5 cells/well and allowed to attach for 20 min. Transfection procedure was followed using AESOP AP5911v2. Briefly, DH10Bac competent cells (10361-012, Invitrogen) were transformed by the genotypically normal human LRRK2 BacMam plasmid to generate the recombinant baculovirus DNA. The Sf9 insect cells were co-transfected with the mixture of recombinant baculovirus DNA and cellfectin (10362-100, Invitrogen). After 4 h of incubation at 27° C., the transfection media was replaced with Sf-900 III SFM medium containing 5% HI FBS (Ser. No. 10/100,147, Invitrogen). The cells were further incubated for 4 days. The infected cell culture medium containing the baculovirus (P0 virus stock) was collected and amplified by further infecting the Sf9 cells at multiplicity of infection (MOI) (pfu/cell) of 0.1.
Quantification of BacMam Viral Titre by BacPAKRapid Titer
The viral titre, measured as plaque forming unit (pfu)/ml was determined using BacPAK Papid Titer Kit (631406, Clontech) according to the manufacturer's protocol. The Sf9 cells seeded in 96-well plate with 3×10^5 cells per well were incubated with serial dilution of the viral stocks for 1 h at 27° C., 50 μl methyl cellulose overlay was added to each well followed by 43-47 h incubation. The cells were then fixed in 4% paraformaldehyde (PFA). After blocking the cells with diluted normal goat serum, Mouse anti-gp64 antibody was added to the cells. After 30 min incubation, the cells were washed with phosphate buffered saline containing 0.1% Triton-X100 (PBST) and incubated for another 30 min with goat anti-mouse antibody/HRP conjugate. This was followed by blue peroxidase substrate which detects the single infected cells and foci of infected cells by their dark blue color. […]

[2] = target: LRRK2 Ser935 phosphorylation in SH-SY5Y cells over-expressing recombinant full length LRRK2 (Homo sapiens (Human), UniProt Q5S007); assay: Recombinant cellular LRRK2 AlphaScreen assay; format: cell-based; conditions: 60 minutes, read-out: Recombinant cellular LRRK2 alphaScreen assay (pIC50) (converted)
In short: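 SH-SY5Y cells transduced with BacMam full-length LRRK2 (MOI 50, 24 h) were treated 60 min at 37° C with serial dilutions (top final 10 μM). Lysates were probed by AlphaScreen using biotinylated anti-pSer935 and total-LRRK2 antibodies; dose-response fit to a sigmoidal model.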

LRRK2 Ser935 phosphorylation in SH-SY5Y cells over-expressing recombinant full length LRRK2, sequence (Q5S007 whole entry): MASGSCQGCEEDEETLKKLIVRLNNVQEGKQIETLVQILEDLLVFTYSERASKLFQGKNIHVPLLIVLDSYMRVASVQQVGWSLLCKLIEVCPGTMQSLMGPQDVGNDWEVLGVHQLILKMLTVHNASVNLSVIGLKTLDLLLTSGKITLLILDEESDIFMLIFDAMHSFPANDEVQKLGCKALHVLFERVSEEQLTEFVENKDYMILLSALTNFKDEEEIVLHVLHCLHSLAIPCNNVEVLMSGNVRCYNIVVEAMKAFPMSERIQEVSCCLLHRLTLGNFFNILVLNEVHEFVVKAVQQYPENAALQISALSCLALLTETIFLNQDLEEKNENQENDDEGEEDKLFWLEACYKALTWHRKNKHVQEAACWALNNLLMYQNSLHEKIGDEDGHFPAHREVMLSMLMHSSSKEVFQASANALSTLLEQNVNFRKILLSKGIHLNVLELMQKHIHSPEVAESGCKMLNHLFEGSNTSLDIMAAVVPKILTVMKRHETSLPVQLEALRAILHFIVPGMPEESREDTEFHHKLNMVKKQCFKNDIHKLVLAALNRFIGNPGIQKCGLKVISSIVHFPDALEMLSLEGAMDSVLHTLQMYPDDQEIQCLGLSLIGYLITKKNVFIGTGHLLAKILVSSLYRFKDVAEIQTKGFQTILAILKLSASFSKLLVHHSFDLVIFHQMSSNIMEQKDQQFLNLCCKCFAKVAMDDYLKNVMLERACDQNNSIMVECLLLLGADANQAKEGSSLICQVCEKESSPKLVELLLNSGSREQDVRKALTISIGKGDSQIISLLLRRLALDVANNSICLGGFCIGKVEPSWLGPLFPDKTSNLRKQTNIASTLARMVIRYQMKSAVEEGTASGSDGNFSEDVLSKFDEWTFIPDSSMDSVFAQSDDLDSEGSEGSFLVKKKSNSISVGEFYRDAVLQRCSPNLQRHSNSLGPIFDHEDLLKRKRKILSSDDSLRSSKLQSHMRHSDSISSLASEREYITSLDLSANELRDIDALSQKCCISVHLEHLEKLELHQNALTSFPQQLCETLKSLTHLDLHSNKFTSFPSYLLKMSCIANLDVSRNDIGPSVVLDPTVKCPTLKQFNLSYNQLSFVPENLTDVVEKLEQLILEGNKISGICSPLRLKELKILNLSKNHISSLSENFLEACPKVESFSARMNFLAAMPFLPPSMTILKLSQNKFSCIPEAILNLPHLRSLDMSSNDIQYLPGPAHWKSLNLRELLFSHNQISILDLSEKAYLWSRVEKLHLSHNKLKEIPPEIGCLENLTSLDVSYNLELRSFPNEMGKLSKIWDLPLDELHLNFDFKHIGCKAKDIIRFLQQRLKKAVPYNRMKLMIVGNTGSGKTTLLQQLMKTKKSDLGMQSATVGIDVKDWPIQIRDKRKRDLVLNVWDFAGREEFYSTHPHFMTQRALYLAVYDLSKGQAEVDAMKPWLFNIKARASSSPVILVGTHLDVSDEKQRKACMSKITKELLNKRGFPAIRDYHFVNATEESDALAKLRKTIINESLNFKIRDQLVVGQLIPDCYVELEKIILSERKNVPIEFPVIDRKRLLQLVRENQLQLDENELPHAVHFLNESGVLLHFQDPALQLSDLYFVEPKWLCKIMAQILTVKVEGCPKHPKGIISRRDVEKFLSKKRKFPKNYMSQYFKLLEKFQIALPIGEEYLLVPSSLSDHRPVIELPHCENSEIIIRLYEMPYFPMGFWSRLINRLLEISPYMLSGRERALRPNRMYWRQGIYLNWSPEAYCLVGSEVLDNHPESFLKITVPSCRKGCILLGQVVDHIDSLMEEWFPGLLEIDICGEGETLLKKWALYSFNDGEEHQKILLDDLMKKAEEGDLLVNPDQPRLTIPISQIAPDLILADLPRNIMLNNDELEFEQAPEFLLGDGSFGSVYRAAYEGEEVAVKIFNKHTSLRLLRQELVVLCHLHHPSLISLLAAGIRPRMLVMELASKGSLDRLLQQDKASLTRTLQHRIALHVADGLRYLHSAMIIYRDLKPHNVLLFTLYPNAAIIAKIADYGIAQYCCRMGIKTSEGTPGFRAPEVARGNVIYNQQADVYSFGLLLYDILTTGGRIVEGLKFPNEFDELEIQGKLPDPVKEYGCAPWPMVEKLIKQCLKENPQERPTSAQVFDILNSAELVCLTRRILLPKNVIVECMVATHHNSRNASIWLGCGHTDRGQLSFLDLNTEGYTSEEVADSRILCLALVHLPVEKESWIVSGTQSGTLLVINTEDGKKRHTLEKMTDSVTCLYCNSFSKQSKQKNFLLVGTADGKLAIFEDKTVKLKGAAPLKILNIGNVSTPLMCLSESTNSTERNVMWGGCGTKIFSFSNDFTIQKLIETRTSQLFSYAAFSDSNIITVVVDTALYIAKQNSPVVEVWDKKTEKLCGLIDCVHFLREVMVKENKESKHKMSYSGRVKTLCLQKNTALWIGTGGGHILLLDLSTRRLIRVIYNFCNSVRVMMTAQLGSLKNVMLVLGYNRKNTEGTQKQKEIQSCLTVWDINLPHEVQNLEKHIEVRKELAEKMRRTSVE
Full length G2019 human LRRK2, sequence (Q5S007 other isoform, or with tags, fused parts or gaps): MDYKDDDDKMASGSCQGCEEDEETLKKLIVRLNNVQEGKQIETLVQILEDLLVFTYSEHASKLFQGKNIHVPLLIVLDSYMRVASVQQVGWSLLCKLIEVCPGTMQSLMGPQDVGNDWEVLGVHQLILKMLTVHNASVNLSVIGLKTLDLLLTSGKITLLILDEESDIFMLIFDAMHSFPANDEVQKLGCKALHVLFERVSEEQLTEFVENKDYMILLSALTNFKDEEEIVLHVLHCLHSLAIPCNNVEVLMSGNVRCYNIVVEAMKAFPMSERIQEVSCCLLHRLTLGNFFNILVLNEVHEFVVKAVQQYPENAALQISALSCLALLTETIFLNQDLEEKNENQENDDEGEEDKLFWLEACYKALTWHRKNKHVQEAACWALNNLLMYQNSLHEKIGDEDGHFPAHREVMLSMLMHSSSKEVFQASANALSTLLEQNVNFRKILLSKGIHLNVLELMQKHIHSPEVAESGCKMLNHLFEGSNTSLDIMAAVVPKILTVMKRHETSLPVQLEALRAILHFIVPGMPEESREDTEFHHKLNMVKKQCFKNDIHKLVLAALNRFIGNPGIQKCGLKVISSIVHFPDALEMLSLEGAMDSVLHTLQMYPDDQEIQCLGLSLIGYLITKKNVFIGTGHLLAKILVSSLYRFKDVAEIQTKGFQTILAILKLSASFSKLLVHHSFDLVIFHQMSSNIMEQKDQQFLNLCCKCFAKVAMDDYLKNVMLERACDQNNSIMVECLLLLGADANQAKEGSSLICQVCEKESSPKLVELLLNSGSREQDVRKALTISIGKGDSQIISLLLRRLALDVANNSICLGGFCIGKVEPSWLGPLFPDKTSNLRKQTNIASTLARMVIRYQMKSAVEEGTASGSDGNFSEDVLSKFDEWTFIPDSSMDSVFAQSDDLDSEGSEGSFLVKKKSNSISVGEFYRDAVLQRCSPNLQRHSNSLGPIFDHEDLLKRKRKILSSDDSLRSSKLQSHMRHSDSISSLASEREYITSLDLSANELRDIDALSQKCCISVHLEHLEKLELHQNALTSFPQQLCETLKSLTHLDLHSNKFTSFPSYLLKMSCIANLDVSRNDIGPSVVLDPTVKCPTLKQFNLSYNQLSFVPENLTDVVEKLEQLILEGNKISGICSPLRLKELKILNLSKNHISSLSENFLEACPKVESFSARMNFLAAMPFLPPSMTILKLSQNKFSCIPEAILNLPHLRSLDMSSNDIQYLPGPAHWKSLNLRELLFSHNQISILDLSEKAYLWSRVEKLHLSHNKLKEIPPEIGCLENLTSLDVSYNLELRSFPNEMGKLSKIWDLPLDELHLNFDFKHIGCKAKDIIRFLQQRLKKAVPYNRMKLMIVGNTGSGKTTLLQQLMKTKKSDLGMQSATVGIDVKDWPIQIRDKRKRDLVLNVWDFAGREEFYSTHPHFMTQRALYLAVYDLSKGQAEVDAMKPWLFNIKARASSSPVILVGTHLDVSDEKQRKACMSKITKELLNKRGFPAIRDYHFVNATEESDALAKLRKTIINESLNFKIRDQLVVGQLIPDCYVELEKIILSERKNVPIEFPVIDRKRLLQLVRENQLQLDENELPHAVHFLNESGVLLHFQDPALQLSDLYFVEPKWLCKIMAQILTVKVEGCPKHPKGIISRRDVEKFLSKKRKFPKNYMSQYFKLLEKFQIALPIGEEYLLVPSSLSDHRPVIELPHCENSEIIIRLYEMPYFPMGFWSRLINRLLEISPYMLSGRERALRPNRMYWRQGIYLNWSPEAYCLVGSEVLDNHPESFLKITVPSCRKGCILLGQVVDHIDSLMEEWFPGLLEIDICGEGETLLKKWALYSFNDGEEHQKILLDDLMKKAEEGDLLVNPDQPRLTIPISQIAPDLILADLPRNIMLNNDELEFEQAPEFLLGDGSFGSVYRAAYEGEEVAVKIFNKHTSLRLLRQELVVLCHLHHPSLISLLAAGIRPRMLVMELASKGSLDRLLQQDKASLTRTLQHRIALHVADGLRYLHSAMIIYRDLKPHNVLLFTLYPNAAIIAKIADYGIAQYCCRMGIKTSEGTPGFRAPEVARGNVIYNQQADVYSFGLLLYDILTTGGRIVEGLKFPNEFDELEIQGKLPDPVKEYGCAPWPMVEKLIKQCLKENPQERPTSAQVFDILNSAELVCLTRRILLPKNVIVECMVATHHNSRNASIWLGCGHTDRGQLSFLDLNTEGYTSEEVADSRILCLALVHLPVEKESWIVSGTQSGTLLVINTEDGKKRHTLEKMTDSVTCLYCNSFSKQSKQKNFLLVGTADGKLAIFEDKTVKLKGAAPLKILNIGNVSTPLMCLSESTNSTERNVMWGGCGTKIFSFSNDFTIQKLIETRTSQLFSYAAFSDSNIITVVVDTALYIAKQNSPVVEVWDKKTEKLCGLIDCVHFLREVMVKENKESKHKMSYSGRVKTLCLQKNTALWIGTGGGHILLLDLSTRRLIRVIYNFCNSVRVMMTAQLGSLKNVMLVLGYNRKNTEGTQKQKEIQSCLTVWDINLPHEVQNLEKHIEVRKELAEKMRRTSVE

Row | SMILES | Full length G2019 human LRRK2 Inhibition mass spectrometry assay (pIC50) [1] | IC50 [2]
1 | Cc1nc(N2CCO[C@H](CO)C2)cc(-n2ncc3cc(C)c(C4CCN(C5COC5)CC4)cc32)n1 [Example E183, (S)-(4-(2-Methyl-6-(5-methyl-6-(1-(oxetan-3-yl)piperidin-4-yl)-1H-indazol-1-yl)pyrimidin-4-yl)morpholin-2-yl)methanol] | 7.9 | 63.1 nM
2 | Cc1nc(N2CCO[C@@H](CO)C2)cc(-n2ncc3cc(C)c(C4CCNCC4)cc32)n1 [Example E188, (R)-(4-(2-Methyl-6-(5-methyl-6-(piperidin-4-yl)-1H-indazol-1-yl)pyrimidin-4-yl)morpholin-2-yl)methanol] | 7.6 | 79.4 nM
3 | COc1nc(N2CCOCC2)cc(-n2ncc3cc(C)c(C4CCNCC4)cc32)n1.Cl [Example E205, 4-(2-Methoxy-6-(5-methyl-6-(piperidin-4-yl)-1H-indazol-1-yl)pyrimidin-4-yl)morpholine] | 7.7 | 50.1 nM
4 | Cc1nc(N2CCO[C@H](CO)C2)cc(-n2ncc3cc(Cl)c(C4CCN(C5COC5)CC4)cc32)n1 [Example E208, (S)-(4-(6-(5-Chloro-6-(1-(oxetan-3-yl)piperidin-4-yl)-1H-indazol-1-yl)-2-methylpyrimidin-4-yl)morpholin-2-yl)methanol] | 7.7 | 39.8 nM
5 | Cc1nc(N2CCO[C@@H](CO)C2)cc(-n2ncc3cc(C)c(C4CCOCC4)cc32)n1 [Example E239, (R)-(4-(2-Methyl-6-(5-methyl-6-(tetrahydro-2H-pyran-4-yl)-1H-indazol-1-yl)pyrimidin-4-yl)morpholin-2-yl)methanol] | 7.9 | 158 nM
